Experimental data reported in paper PMC5803267, “A small molecule inhibitor of Rheb selectively targets mTORC1 signaling” (Nature Communications, 2018).

How the values were obtained:
[1] = tested on: T389pS6K1 in HEK293 cells; experiment: T389pS6K1 in HEK293 cells transfected with WT or constitutively active mTOR mutants; format: cell-based, human; details: HEK293, 30 µM NR1 for 90 min
Experimental: MCF-7 cells were serum-starved for 16 h and treated with compound for 90 min before cell lysis and Western blot analysis. For insulin-stimulated cells, 100 nM insulin was added 30 min before cell lysis. For EGF-stimulated cells, 100 ng mL^−1 EGF was added 10 min before cell lysis. c Rap1 activity was detected in lysates loaded in vitro with either GDP or GTPγS and treated with NR1 at the indicated concentrations. This was followed by a subsequent pulldown of GST-RalGDS-RBD. Bound Rap1 was detected by Western blot. d Evaluation of NR1 in a LAM patient-derived cell line (TRI102) under replete and serum-starved conditions. For replete conditions, TRI102 cells were treated for 90 min with compound in DMEM + 10% FBS. For serum-starved conditions, TRI102 cells were serum-starved 16 h and then treated for 90 min with compound prior to cell lysis and Western blot analysis. e HEK293 cells co-transfected with the indicated mTOR constructs and HA-GST-S6K1 were starved of amino acids or treated with NR1. […]
To further support Rheb as the target of NR1, we assessed whether NR1 could inhibit ^T389pS6K1 in cells transfected with constitutively active, Rheb-independent double mutants of mTOR originally described by Xu et al.[48]. […]

MCF-7 cells = experiment: Protein synthesis assay (35S-methionine incorporation) in MCF-7 cells; format: cell-based, human; details: MCF-7, 2.5 h compound, 35S-Met label 30 min
Experimental: Data are plotted as percent decrease in forward scatter. […] Error bars represent standard deviation of the mean of duplicates; graph represents data from one of two separate experiments
Another functional correlate dependent on mTORC1 activity is protein synthesis. […] The functional effects of NR1 on cell size and protein synthesis are consistent with the observed selective inhibition of mTORC1 pathway signaling.
The protein synthesis assay was performed by incubation of MCF7 cells with compounds in MEM + 10% dialyzed FBS for 2.5 h and then incubated in labeling mix (compounds, Met- and Cys-free media, 10% dialyzed FBS, and ^35S protein labeling mix) for 30 min. Cells were lysed, proteins were precipitated, and resuspended pellets were read on a Microbeta 2.

recombinant human mTOR = molecular target: T1, recombinant human mTOR (Homo sapiens, UniProt P42345); experiment: Rheb-independent mTOR in vitro kinase assay (HotSpot, radiometric); format: biochemical; details: up to a concentration of 30 µM
T1 construct: GST (N); host or cells: insect cells

[2] = molecular target: T2, FLAG-Rheb / myc-mTOR interaction (Homo sapiens, UniProt Q15382); experiment: Co-immunoprecipitation of overexpressed FLAG-Rheb and myc-mTOR; format: cell-based; details: review-only material
T2 construct: expressed in transfected cells
Excerpt: Response: We agree with Reviewer 2 and have included a brief discussion on the potential effects of chronic Rheb inhibition in the discussion section (p. 25).
“As with any new pharmacological agent, the anticipated side effects will need to be considered. The only data available from the literature that may help in understanding the potential side-effects of reducing Rheb activity come from genetic knock-out studies which, because of their inherent impacts on developmental and other effects, cannot be directly related to what might be expected following pharmacological inhibition. Thus, careful development of a novel Rheb inhibitor would have to take into account the potential organ systems that may be impacted, such as neurological63, 64 and […]
Below is a list of concerns that would need to be addressed in order for this work to be considered for publication in Nature Communications.
1. The authors state that it is “conceivable that portions of NR1 positioned outside the Rheb binding pocket sterically block the interaction with mTORC1. Given that the authors have access to recombinant Rheb and mTOR protein, it is unclear why there is no direct evidence that NR1 can inhibit their interaction. Alternatively, the effects of NR1 on Rheb-mTOR interactions could be shown in cells through co-IP. […]

T1 sequence (P42345 1360-2549): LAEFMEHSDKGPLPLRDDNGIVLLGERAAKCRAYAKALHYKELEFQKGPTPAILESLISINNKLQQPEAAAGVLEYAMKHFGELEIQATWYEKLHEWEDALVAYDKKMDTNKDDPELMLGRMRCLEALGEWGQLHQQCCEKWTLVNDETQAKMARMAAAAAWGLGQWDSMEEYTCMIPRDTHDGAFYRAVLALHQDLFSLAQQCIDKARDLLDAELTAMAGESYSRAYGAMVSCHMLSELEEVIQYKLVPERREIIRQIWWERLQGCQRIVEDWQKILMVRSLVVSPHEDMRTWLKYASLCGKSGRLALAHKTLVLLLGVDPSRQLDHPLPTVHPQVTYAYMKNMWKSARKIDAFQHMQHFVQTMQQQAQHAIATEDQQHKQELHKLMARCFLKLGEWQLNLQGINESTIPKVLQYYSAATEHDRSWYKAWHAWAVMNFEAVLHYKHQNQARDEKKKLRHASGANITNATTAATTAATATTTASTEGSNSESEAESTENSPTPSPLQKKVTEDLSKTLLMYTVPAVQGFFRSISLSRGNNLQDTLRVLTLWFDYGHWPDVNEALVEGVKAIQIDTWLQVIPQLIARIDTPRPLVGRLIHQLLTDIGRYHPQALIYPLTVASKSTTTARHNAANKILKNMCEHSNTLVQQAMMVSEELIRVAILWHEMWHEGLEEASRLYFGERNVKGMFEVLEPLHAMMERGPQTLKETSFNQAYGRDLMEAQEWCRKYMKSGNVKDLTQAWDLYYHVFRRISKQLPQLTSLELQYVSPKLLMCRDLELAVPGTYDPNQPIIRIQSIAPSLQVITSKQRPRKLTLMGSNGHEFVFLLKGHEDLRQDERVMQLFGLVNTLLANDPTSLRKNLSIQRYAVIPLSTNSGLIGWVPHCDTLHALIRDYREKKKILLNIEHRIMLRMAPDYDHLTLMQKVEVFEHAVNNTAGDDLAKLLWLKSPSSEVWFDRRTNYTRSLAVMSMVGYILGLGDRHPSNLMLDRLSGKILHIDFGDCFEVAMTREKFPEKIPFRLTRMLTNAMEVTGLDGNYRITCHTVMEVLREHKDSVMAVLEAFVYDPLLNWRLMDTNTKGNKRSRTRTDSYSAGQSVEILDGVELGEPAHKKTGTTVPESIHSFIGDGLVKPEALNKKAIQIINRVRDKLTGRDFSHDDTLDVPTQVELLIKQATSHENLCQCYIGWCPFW
T2 sequence (Q15382 1-181 limits assumed): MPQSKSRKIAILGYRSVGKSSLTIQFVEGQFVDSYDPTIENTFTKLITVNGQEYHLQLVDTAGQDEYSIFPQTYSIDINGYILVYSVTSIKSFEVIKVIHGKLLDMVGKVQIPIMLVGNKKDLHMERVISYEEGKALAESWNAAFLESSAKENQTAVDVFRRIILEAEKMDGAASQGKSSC

With `CN(C)C(=O)c1ccc(Cn2c(C(=O)O)cc3c(Br)cc(Sc4ccc(Cl)c(Cl)c4)cc32)cc1` [NR1, 4-bromo-6-(3,4-dichlorophenylthio)-1-(4-(dimethylcarbamoyl)benzyl)-1H-indole-2-carboxylic acid] as the molecule, how does the “T389pS6K1 phosphorylation with Rheb-independent mTOR mutants” value [1] read?
The value was “no impact on pS6K1”.

And the “T389pS6K1 phosphorylation with vehicle or WT mTOR” value [1]?
The value was “reduces”.

What about the protein synthesis (MCF-7 cells) of the same molecule?
The protein synthesis was “dose-dependently reduce protein synthesis”.

What about the “inhibitory activity in HotSpot” value (recombinant human mTOR) of the same molecule?
Its value is “no inhibitory activity”.

What about the Rheb-mTOR interaction [2] of the same molecule?
Its Rheb-mTOR interaction is “does not modulate”.
